Laboratory results published in PubChem BioAssay (NCI).
Several values for one entry are separate records, joined by “and”; a condition that tells them apart may be missing. Equal entries are not always repeated.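 Cells were grown in 96-well plates and exposed to each compound for 48 hours at five concentrations; endpoints were interpolated linearly between bracketing concentrations, or set to the highest concentration if not reached. At the GI50, growth is halved. TGI is the concentration that stops growth completely.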

Each compound was assayed on MDA-MB-468 breast (assay: NCI-60 cell line screen, 48 h).

Question: `O=C(Nc1ccc(I)cc1F)c1cc(F)ccc1O` was tested. Which GI50 did it give?
Answer: 898 nM

Question: And the TGI?
Answer: 5300 nM

Question: `CCn1c(-c2nonc2N)nc2c(C#CC(C)(C)O)ncc(OCC3CCNCC3)c21` was tested. Which GI50 did it give?
Answer: 336 nM

Question: What about the TGI of the same compound?
Answer: > 25000 nM

Question: Which results are given for `Cc1cccc(Cc2cnc(NC(=O)/C=C/c3ccco3)s2)c1`?
Answer: GI50: 40.7 nM; TGI: 13200 nM

Question: For `COc1ccc(C(=O)C(CN(C)C)c2ccccc2)cc1` (centres undefined), which GI50 is on record?
Answer: 1930 nM

Question: What about the TGI of the same compound?
Answer: 4960 nM

Question: Which results are given for `Cc1cncc2cccc(S(=O)(=O)N3CCCNC[C@@H]3C)c12`?
Answer: GI50: 19000 nM; TGI: > 91100 nM

Question: How did the GI50 turn out when `CCN(CC)c1ccc(/C=C2/NC(=O)NC2=O)cc1` was run?
Answer: 981 nM

Question: And the TGI?
Answer: 7840 nM

Question: With `COc1cc(C2CC(c3cc(Cl)c(C)cc3O)=NN2c2ccc(S(N)(=O)=O)cc2)cc(OC)c1OC` (centres undefined) as the compound, how does the GI50 read?
Answer: 2640 nM

Question: What about the TGI of the same compound?
Answer: 9070 nM

Question: `COc1ccc(C2C3=C(COC3=O)N(CCO)c3cc4c(cc32)CCC4)cc1OC` (centres undefined) was tested. Which GI50 did it give?
Answer: 184 nM

Question: `O=C(N/N=C\c1cc(Br)cc(Br)c1O)N/N=C/c1cc(Br)cc(Br)c1O` was tested. Which GI50 did it give?
Answer: 3130 nM

Question: And the TGI?
Answer: 8850 nM

Question: For `COC(=O)C1=C(C)NC(C)=C(C(=O)OC)C1c1ccccc1[N+](=O)[O-]`, which GI50 is on record?
Answer: 25300 nM

Question: And the TGI?
Answer: > 100000 nM

Question: With `Nc1cc2ccncc2c2ccccc12` as the compound, how does the GI50 read?
Answer: 12300 nM

Question: And the TGI?
Answer: 36500 nM

Question: How did the GI50 turn out when `Cn1cc(C2=C(c3cn(C)c4cc(Cl)ccc34)C(=O)NC2=O)c2ccccc21` was run?
Answer: 74.4 nM

Question: And the TGI?
Answer: 5960 nM

Question: How did the GI50 turn out when `c1ccc(-c2nn(-c3ccccc3)[n+](-c3ccccc3-c3ccccc3)n2)cc1` was run?
Answer: 189 nM

Question: And the TGI?
Answer: 923 nM

Question: For `Fc1ccc(-c2ncn(C3CCNCC3)c2-c2ccnc(Oc3ccc(Oc4ccccc4)cc3)n2)cc1`, which GI50 is on record?
Answer: 1940 nM

Question: What about the TGI of the same compound?
Answer: 5570 nM

Question: What does the source list for `CO[C@H]1/C=C/C=C/C=C/C[C@H](OC(=O)[C@@H](C)NC(=O)C2CCCCC2)[C@H](C)[C@@H](O)/C(C)=C\CCC2=CC(=O)C=C(NC(=O)C1)C2=O`?
Answer: GI50: 142 nM; TGI: 740 nM

Question: With `Nc1ncn(C2OC(CO)C(O)C2O)c(=O)n1` (centres undefined) as the compound, how does the GI50 read?
Answer: 1210 nM and 925 nM

Question: What about the TGI of the same compound?
Answer: 6450 nM and 8060 nM

Question: Which GI50 does the source give for `COc1ccc(Nc2ccnc3cc(Cl)ccc23)cc1CN(CCCl)CCCl` here?
Answer: 195 nM

Question: What about the TGI of the same compound?
Answer: 840 nM

Question: How did the GI50 turn out when `Cn1cc(-c2nnc(N)nc2-c2c[nH]c3ccc(F)cc23)c2cc(Br)ccc21` was run?
Answer: 1240 nM

Question: What about the TGI of the same compound?
Answer: 7750 nM

Question: What does the source list for `O=C(c1nc2ccccc2[nH]1)C1C(c2cccc([N+](=O)[O-])c2)C2CC3CCCCC3N2[C@@]12C(=O)Nc1cc(Cl)ccc12` (some centres undefined)?
Answer: GI50: 1390 nM; TGI: 4000 nM

Question: What does the source list for `Cn1cc(C2=C(c3cccc(Cl)c3)C(=O)NC2=O)c2ccccc21`?
Answer: GI50: 4480 nM; TGI: 24600 nM

Question: How did the GI50 turn out when `CCN(CC)Cc1cc(Nc2c3ccc(Cl)cc3nc3c(C)cccc23)ccc1O` was run?
Answer: 1370 nM

Question: What about the TGI of the same compound?
Answer: 2830 nM

Question: Which results are given for `Clc1ccc2c(NCCNc3nc(Cl)nc4ccccc34)ccnc2c1`?
Answer: GI50: 583 nM; TGI: 2030 nM

Question: For `NC(=S)c1cn(C2OC(CO)C(O)C2O)c2ncnc(N)c12` (centres undefined), which GI50 is on record?
Answer: 58.9 nM

Question: And the TGI?
Answer: 252 nM

Question: Which GI50 does the source give for `Cc1cc2nc3c4cc(Cl)ccc4n(CC(=O)NCCN(C)C)c3nc2cc1C` here?
Answer: 11300 nM

Question: What about the TGI of the same compound?
Answer: 23800 nM

Question: Which GI50 does the source give for `O=C(Nc1ccc(Oc2cccc(Cl)c2)c(Cl)c1)c1cccnc1` here?
Answer: 565 nM

Question: And the TGI?
Answer: 4150 nM

Question: With `CCCCOc1nc2ccccc2cc1C1CNC(=O)c2ccccc2N1` (centres undefined) as the compound, how does the GI50 read?
Answer: 2030 nM

Question: What about the TGI of the same compound?
Answer: 9560 nM

Question: Which GI50 does the source give for `Nc1ccc(Sc2ccc3c4c2cccc4c(=O)n2c4ccccc4nc32)cc1` here?
Answer: 3190 nM

Question: What about the TGI of the same compound?
Answer: 20800 nM

Question: What does the source list for `N#CCCCCCn1c2ccccc2c2c3c(c4c5ccccc5[nH]c4c21)C(=O)N(O)C3=O`?
Answer: GI50: 1480 nM; TGI: 5980 nM

Question: `COC(=O)[C@@H](C)C[C@H](Cc1ccccc1)NC(=O)c1csc([C@@H](C[C@H](C(C)C)N(C)C(=O)[C@@H](NC(=O)CN(C)C)C2CC2)OC(C)=O)n1` was tested. Which GI50 did it give?
Answer: 6.58 nM

Question: `CCN1CCN(c2nc(NNC(=O)c3cccc(OC)c3)nc(N3CCN(C(c4ccccc4)c4ccccc4)CC3)n2)CC1` was tested. Which GI50 did it give?
Answer: 1910 nM

Question: What about the TGI of the same compound?
Answer: 4920 nM

Question: With `Cc1ccc(/C=C2\CN(C(=O)CCN3CCC(=NO)CC3)C/C(=C\c3ccc(C)cc3)C2=O)cc1` as the compound, how does the GI50 read?
Answer: 1460 nM

Question: What about the TGI of the same compound?
Answer: 3460 nM

Question: `CCOC(=O)Nc1ccc2nc(Sc3ccc(Cl)cc3)sc2c1` was tested. Which GI50 did it give?
Answer: 719 nM

Question: And the TGI?
Answer: 3670 nM

Question: What does the source list for H-KIFKKFKTIIKKVWRIFGRF-NH2?
Answer: GI50: 1320 nM; TGI: 5940 nM
